Reference: ChEMBL document CHEMBL1146080, “Novel, achiral 1,3,4-benzotriazepine analogues of 1,4-benzodiazepine-based CCK(2) antagonists that display high selectivity over CCK(1) receptors” (J Med Chem, 2006)
The source made the active and inactive calls. The rule behind the calls is not given here.

Columns and labels:
[1] = target: T1, Gastrin/cholecystokinin type B receptor (Homo sapiens, UniProt P32239); experiment: Displacement of [125I]BH-CCK-8S from human recombinant CCK2 receptor expressed in NIH3T3 cells; format: cell-based
T1 sequence (P32239 whole entry): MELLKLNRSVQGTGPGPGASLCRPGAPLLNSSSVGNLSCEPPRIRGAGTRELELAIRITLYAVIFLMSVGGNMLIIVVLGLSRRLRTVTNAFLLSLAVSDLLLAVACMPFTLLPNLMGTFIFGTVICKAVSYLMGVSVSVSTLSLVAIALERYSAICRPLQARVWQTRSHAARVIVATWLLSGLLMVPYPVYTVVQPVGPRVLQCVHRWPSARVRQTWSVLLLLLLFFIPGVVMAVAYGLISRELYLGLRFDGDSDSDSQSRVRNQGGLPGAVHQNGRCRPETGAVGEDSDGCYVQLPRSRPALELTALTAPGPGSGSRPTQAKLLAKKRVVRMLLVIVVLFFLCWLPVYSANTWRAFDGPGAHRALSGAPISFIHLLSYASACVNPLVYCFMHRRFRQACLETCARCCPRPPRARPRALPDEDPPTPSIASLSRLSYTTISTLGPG

[2] = target: T2, Cholecystokinin receptor type A (Homo sapiens) (UniProt P32238); experiment: Inhibition of [3H]L-364718 binding to human recombinant CCK1 receptor expressed in PC3 cell line at 10 uM; format: cell-based; conditions: PC-3
T2 sequence (whole entry): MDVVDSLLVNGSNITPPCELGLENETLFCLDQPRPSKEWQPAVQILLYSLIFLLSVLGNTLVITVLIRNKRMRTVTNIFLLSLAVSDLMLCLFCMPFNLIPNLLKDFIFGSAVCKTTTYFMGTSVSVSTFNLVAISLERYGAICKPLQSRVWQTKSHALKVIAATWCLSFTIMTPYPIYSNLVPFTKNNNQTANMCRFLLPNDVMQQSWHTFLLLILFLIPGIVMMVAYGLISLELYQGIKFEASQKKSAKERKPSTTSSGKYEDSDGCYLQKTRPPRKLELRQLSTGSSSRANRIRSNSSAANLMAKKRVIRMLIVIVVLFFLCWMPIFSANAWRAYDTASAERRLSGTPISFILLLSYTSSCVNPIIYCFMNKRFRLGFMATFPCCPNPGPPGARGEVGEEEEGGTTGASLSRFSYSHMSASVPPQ

[3] = target: T3, Gastrin/cholecystokinin type B receptor (Rattus norvegicus, UniProt P30553); experiment: Affinity for CCK2 receptor assessed by inhibition of pentagastrin-stimulated acid secretion in perfused rat stomach; format: functional, tissue-based; conditions: read-out: pA2 (converted)
T3 sequence (P30553 whole entry): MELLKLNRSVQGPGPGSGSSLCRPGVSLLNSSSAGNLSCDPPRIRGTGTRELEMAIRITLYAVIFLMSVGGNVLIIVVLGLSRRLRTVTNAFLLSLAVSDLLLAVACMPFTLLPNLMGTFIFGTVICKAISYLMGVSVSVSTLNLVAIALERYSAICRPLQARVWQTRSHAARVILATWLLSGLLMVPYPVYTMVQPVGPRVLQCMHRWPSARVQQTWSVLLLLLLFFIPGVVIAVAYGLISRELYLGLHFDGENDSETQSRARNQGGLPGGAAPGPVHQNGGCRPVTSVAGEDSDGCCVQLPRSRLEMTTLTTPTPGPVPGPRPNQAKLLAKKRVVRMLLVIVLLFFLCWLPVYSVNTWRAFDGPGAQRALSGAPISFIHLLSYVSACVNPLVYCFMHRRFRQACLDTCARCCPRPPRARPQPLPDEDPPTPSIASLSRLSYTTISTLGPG

[4] = target: T4, Cholecystokinin receptor type A (Homo sapiens, UniProt P32238); experiment: Displacement of [3H]L-364718 from human recombinant CCK1 receptor expressed in PC3 cell line; format: cell-based, PC-3
T4 sequence (P32238 whole entry): T2 sequence (whole entry)

[5] = target: T2, Cholecystokinin receptor type A (Homo sapiens); experiment: Inhibition of [3H]L-364718 binding to human recombinant CCK1 receptor expressed in CHO cell line at 10 uM; format: cell-based
[6] = target: T4, Cholecystokinin receptor type A; experiment: Displacement of [3H]L-364718 from human recombinant CCK1 receptor expressed in CHO cell line; format: cell-based
[7] = target: T5, Gastrin/cholecystokinin type B receptor (Rattus norvegicus) (UniProt P30553); experiment: Affinity for CCK2 receptor assessed by inhibition of pentagastrin-stimulated acid secretion in perfused rat stomach at 1 uM; format: functional, tissue-based
T5 sequence (whole entry): T3 sequence (P30553 whole entry)

[8] = target: T6, Gastrin/cholecystokinin type B receptor (Canis lupus familiaris, UniProt P30552); experiment: Binding affinity to canine CCK2 receptor
T6 sequence (P30552 whole entry): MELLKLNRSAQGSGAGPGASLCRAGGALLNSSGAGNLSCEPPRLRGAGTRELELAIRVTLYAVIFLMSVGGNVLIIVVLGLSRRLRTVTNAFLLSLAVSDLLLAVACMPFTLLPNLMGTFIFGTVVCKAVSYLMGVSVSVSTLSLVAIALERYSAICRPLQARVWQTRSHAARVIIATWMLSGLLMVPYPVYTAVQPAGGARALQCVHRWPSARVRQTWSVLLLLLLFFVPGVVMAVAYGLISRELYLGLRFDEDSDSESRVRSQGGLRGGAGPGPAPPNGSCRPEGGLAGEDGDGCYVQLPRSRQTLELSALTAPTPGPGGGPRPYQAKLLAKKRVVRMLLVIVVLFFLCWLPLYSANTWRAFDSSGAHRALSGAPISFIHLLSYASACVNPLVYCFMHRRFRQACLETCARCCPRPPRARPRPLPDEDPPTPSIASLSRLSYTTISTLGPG

Structure (SMILES): CNc1cccc(NC(=O)CN2N=C(c3ccccn3)c3ccccc3N(CC(=O)N3CCCC3)C2=O)c1
- Ki [1]: 2510 nM

Structure (SMILES): CN(C)c1cccc(NC(=O)CN2N=C(C3CCCCC3)c3ccccc3N(CC(=O)C(C)(C)C)C2=O)c1
- inhibition [2]: 16%
- Ki [1]: 6.03 nM

Structure (SMILES): CNc1cccc(NC(=O)C[C@@H]2N=C(C3CCCCC3)c3ccccc3N(CC(=O)C(C)(C)C)C2=O)c1
- Kb [3]: 28.2 nM
- Ki [4]: 1170 nM
- Ki [1]: 6.03 nM

Structure (SMILES): CNc1cccc(NC(=O)CN2N=C(c3ccccc3)c3ccccc3N(CC(=O)C(C)(C)C)C2=O)c1
- inhibition [2]: 21%
- Ki [1]: 74.1 nM

Structure (SMILES): CC(C)(C)C(=O)CN1C(=O)N(CC(=O)Nc2cccc(-n3ccnc3)c2)N=C(C2CCCCC2)c2ccccc21
- inhibition [5]: 57%
- Ki [1]: 9.12 nM

Structure (SMILES): CC(C)(C)C(=O)CN1C(=O)N(CC(=O)Nc2cccc(N3CCCC3)c2)N=C(C2CCCCC2)c2ccccc21
- Ki [4]: > 10000 nM
- Ki [1]: 15.8 nM

Structure (SMILES): CC(C)(C)C(=O)CN1C(=O)N(CC(=O)Nc2cccc(O)c2)N=C(C2CCCCC2)c2ccccc21
- Ki [6]: 1510 nM
- Ki [1]: 13.2 nM

Structure (SMILES): CC(C)(C)C(=O)CN1C(=O)N(CC(=O)Nc2cccc(CO)c2)N=C(C2CCCCC2)c2ccccc21
- Ki [4]: 5890 nM
- Ki [1]: 15.1 nM

Structure (SMILES): CNc1cccc(NC(=O)CN2N=C(c3ccccn3)c3ccccc3N(CC(=O)c3ccccc3C)C2=O)c1
- Ki [1]: 288 nM

Structure (SMILES): CC(C)(C)C(=O)CN1C(=O)N(CC(=O)Nc2cccc(N)c2)N=C(C2CCCCC2)c2ccccc21
- inhibition [5]: 40%
- Ki [1]: 26.9 nM

Structure (SMILES): CNc1cccc(NC(=O)C[C@H]2N=C(C3CCCCC3)c3ccccc3N(CC(=O)C(C)(C)C)C2=O)c1
- Kb [3]: 28.8 nM
- Ki [4]: 724 nM
- Ki [1]: 13.2 nM

Structure (SMILES): COc1cccc(NC(=O)CN2N=C(C3CCCCC3)c3ccccc3N(CC(=O)C(C)(C)C)C2=O)c1
- inhibition [5]: 46%
- pA2 [7]: inactive
- Ki [1]: 5.5 nM

Structure (SMILES): CC(C)(C)C(=O)CN1C(=O)N(CC(=O)Nc2cccc(C(=O)O)c2)N=C(C2CCCCC2)c2ccccc21
- Ki [8]: 12.3 nM
- Kb [3]: 0.977 nM
- Ki [4]: 11200 nM
- Ki [1]: 5.13 nM

Structure (SMILES): CNc1cccc(NC(=O)N[C@@H]2N=C(c3ccccn3)c3ccccc3N(CC(=O)C(C)(C)C)C2=O)c1 [NETAZEPIDE]
- Kb [3]: 0.0794 nM
- Ki [4]: 30.2 nM
- Ki [1]: 0.138 nM

Structure (SMILES): CNc1cccc(NC(=O)CN2N=C(c3ccccn3)c3ccccc3N(CC(=O)C(C)(C)C)C2=O)c1
- Kb [3]: 224 nM
- inhibition [2]: 22%
- Ki [1]: 195 nM

Structure (SMILES): CCOCCNc1cccc(NC(=O)CN2N=C(C3CCCCC3)c3ccccc3N(CC(=O)C(C)(C)C)C2=O)c1
- Ki [4]: > 10000 nM
- Ki [1]: 44.7 nM

Structure (SMILES): Cc1cccc(NC(=O)N[C@@H]2N=C(c3ccccc3)c3ccccc3N(C)C2=O)c1 [L-365260]
- Ki [4]: 174 nM

Structure (SMILES): CC(C)(C)C(=O)CN1C(=O)N(CC(=O)Nc2cccc(N3CCOCC3)c2)N=C(C2CCCCC2)c2ccccc21
- inhibition [5]: 42%
- Ki [1]: 16.6 nM

Structure (SMILES): CNCCN(C)c1cccc(NC(=O)CN2N=C(C3CCCCC3)c3ccccc3N(CC(=O)C(C)(C)C)C2=O)c1
- Ki [6]: 8710 nM
- Ki [1]: 29.5 nM

Structure (SMILES): Cc1cccc(NC(=O)CN2N=C(C3CCCCC3)c3ccccc3N(CC(=O)C(C)(C)C)C2=O)c1
- inhibition [2]: 27%
- pA2 [7]: inactive
- Ki [1]: 8.91 nM

Structure (SMILES): CNc1cccc(NC(=O)CN2N=C(C3CCCCC3)c3ccccc3N(CC(=O)C(C)(C)C)C2=O)c1
- Ki [4]: > 10000 nM
- Ki [1]: 7.94 nM
